Values after ≈ are worked out from the molar mass of the structure shown.
What was measured:
Format in all cases: functional
Staphylococcus aureus [1] = assay: Antibacterial activity against methicillin-resistant Staphylococcus aureus 2111-10-USA300 harboring cfr gene assessed as growth inhibition
Staphylococcus aureus [2] = assay: Antibacterial activity against methicillin-resistant Staphylococcus aureus 1279-07 harboring cfr gene assessed as growth inhibition
Streptococcus pyogenes = assay: Antibacterial activity against macrolides, lincosamides, and streptogramin B-resistant Streptococcus pyogenes 1304-00 assessed as growth inhibition
Staphylococcus aureus [3] = assay: Antibacterial activity against macrolides, lincosamides, streptogramin B and methicillin-resistant Staphylococcus aureus 1609-09 harboring cfr gene assessed as growth inhibition
[4] = test system: Staphylococcus epidermidis; assay: Antibacterial activity against macrolides, lincosamides, streptogramin B and methicillin-resistant Staphylococcus epidermidis 1105-00 assessed as growth inhibition
Staphylococcus aureus [5] = assay: Antibacterial activity against methicillin-resistant Staphylococcus aureus 1279-07-USA300 assessed as growth inhibition
Staphylococcus aureus [6] = assay: Antibacterial activity against methicillin-resistant Staphylococcus aureus 1281-07 harboring cfr gene assessed as growth inhibition
Staphylococcus aureus [7] = assay: Antibacterial activity against macrolides, lincosamides, streptogramin B and methicillin-resistant Staphylococcus aureus 1015-00 assessed as growth inhibition
Streptococcus pneumoniae = assay: Antibacterial activity against macrolides, lincosamides, and streptogramin B-resistant Streptococcus pneumoniae 1243-00 assessed as growth inhibition
Staphylococcus aureus [8] = assay: Antibacterial activity against Staphylococcus aureus ATCC 29213 assessed as growth inhibition

Compound	MIC (Staphylococcus aureus [1]) [µg/mL]	MIC (Staphylococcus aureus [2]) [µg/mL]	MIC (Streptococcus pyogenes) [µg/mL]	MIC (Staphylococcus aureus [3]) [µg/mL]	MIC [4] [µg/mL]	MIC (Staphylococcus aureus [5]) [µg/mL]	MIC (Staphylococcus aureus [6]) [µg/mL]	MIC (Staphylococcus aureus [7]) [µg/mL]	MIC (Streptococcus pneumoniae) [µg/mL]	MIC (Staphylococcus aureus [8]) [µg/mL]
CC[C@H]1OC(=O)[C@H](C)[C@@H](OC(=O)N2CC(C)(C)C[C@@H]2c2ccc(Cl)cc2)[C@H](C)[C@@H](O[C@@H]2O[C@H](C)C[C@H](N(C)C)[C@H]2O)[C@](C)(OC)C[C@@H](C)C(=O)[C@H](C)[C@H]2NC(=O)O[C@@]21C	0.25 (≈ 0.294 µM)	0.25 (≈ 0.294 µM)	0.125 (≈ 0.147 µM)	> 64	64 (≈ 75.3 µM)	0.5 (≈ 0.588 µM)	0.25 (≈ 0.294 µM)	> 64	0.125 (≈ 0.147 µM)	0.25 (≈ 0.294 µM)
CC[C@H]1OC(=O)[C@H](C)[C@@H](OC(=O)N2CCC[C@H]2c2ccccc2)[C@H](C)[C@@H](O[C@@H]2O[C@H](C)C[C@H](N(C)C)[C@H]2O)[C@](C)(OC)C[C@@H](C)C(=O)[C@H](C)[C@H]2NC(=O)O[C@@]21C	0.5 (≈ 0.635 µM)	> 64	> 64	> 64	> 64	> 64	0.5 (≈ 0.635 µM)	> 64	> 64	2 (≈ 2.54 µM)
CC[C@H]1OC(=O)[C@H](C)[C@@H](OC(=O)N2CCC[C@@H]2c2ccccc2)[C@H](C)[C@@H](O[C@@H]2O[C@H](C)C[C@H](N(C)C)[C@H]2O)[C@](C)(OC)C[C@@H](C)C(=O)[C@H](C)[C@H]2NC(=O)O[C@@]21C	> 64	> 64	> 64	> 64	> 64	> 64	0.25 (≈ 0.317 µM)	> 64	> 64	0.5 (≈ 0.635 µM)
CC[C@H]1OC(=O)[C@H](C)[C@@H](OC(=O)N2CCCC2)[C@H](C)[C@@H](O[C@@H]2O[C@H](C)C[C@H](N(C)C)[C@H]2O)[C@](C)(OC)C[C@@H](C)C(=O)[C@H](C)[C@H]2NC(=O)O[C@@]21C	16 (≈ 22.5 µM)	16 (≈ 22.5 µM)	0.5 (≈ 0.702 µM)	16 (≈ 22.5 µM)	1 (≈ 1.4 µM)	2 (≈ 2.81 µM)	32 (≈ 45 µM)	4 (≈ 5.62 µM)	0.5 (≈ 0.702 µM)	4 (≈ 5.62 µM)
CC[C@H]1OC(=O)[C@H](C)[C@@H](OC(=O)N2CC(C)(C)C[C@@H]2c2cccc(Cl)c2Cl)[C@H](C)[C@@H](O[C@@H]2O[C@H](C)C[C@H](N(C)C)[C@H]2O)[C@](C)(OC)C[C@@H](C)C(=O)[C@H](C)[C@H]2NC(=O)O[C@@]21C	0.5 (≈ 0.565 µM)	0.5 (≈ 0.565 µM)	1 (≈ 1.13 µM)	64 (≈ 72.3 µM)	16 (≈ 18.1 µM)	2 (≈ 2.26 µM)	0.25 (≈ 0.283 µM)	32 (≈ 36.2 µM)	1 (≈ 1.13 µM)	0.5 (≈ 0.565 µM)
CC[C@H]1OC(=O)[C@H](C)[C@@H](OC(=O)N2CC(C)(C)C[C@@H]2c2ccc(Cl)cc2Cl)[C@H](C)[C@@H](O[C@@H]2O[C@H](C)C[C@H](N(C)C)[C@H]2O)[C@](C)(OC)C[C@@H](C)C(=O)[C@H](C)[C@H]2NC(=O)O[C@@]21C	0.25 (≈ 0.283 µM)	0.25 (≈ 0.283 µM)	0.03 (≈ 0.0339 µM)	64 (≈ 72.3 µM)	8 (≈ 9.04 µM)	0.5 (≈ 0.565 µM)	0.25 (≈ 0.283 µM)	32 (≈ 36.2 µM)	0.015 (≈ 0.017 µM)	0.25 (≈ 0.283 µM)
CC[C@H]1OC(=O)[C@H](C)[C@@H](OC(=O)N2CC(C)(C)C[C@@H]2c2ccc(Cl)c(Cl)c2)[C@H](C)[C@@H](O[C@@H]2O[C@H](C)C[C@H](N(C)C)[C@H]2O)[C@](C)(OC)C[C@@H](C)C(=O)[C@H](C)[C@H]2NC(=O)O[C@@]21C	0.25 (≈ 0.283 µM)	0.25 (≈ 0.283 µM)	0.125 (≈ 0.141 µM)	64 (≈ 72.3 µM)	64 (≈ 72.3 µM)	2 (≈ 2.26 µM)	0.25 (≈ 0.283 µM)	64 (≈ 72.3 µM)	0.125 (≈ 0.141 µM)	0.25 (≈ 0.283 µM)
CC[C@H]1OC(=O)[C@H](C)[C@@H](OC(=O)N2CC(C)(C)C[C@@H]2c2ccccc2Cl)[C@H](C)[C@@H](O[C@@H]2O[C@H](C)C[C@H](N(C)C)[C@H]2O)[C@](C)(OC)C[C@@H](C)C(=O)[C@H](C)[C@H]2NC(=O)O[C@@]21C	0.25 (≈ 0.294 µM)	0.25 (≈ 0.294 µM)	0.25 (≈ 0.294 µM)	64 (≈ 75.3 µM)	64 (≈ 75.3 µM)	2 (≈ 2.35 µM)	0.25 (≈ 0.294 µM)	64 (≈ 75.3 µM)	0.25 (≈ 0.294 µM)	0.25 (≈ 0.294 µM)
CC[C@H]1OC(=O)[C@H](C)[C@@H](OC(=O)N2CC(C)(C)C[C@@H]2c2cccc(Cl)c2)[C@H](C)[C@@H](O[C@@H]2O[C@H](C)C[C@H](N(C)C)[C@H]2O)[C@](C)(OC)C[C@@H](C)C(=O)[C@H](C)[C@H]2NC(=O)O[C@@]21C	0.25 (≈ 0.294 µM)	0.25 (≈ 0.294 µM)	0.03 (≈ 0.0353 µM)	> 64	64 (≈ 75.3 µM)	0.25 (≈ 0.294 µM)	0.125 (≈ 0.147 µM)	> 64	0.03 (≈ 0.0353 µM)	0.25 (≈ 0.294 µM)
CC[C@H]1OC(=O)[C@H](C)[C@@H](OC(=O)N2CC(C)(C)C[C@@H]2c2cccc3c2OCO3)[C@H](C)[C@@H](O[C@@H]2O[C@H](C)C[C@H](N(C)C)[C@H]2O)[C@](C)(OC)C[C@@H](C)C(=O)[C@H](C)[C@H]2NC(=O)O[C@@]21C	0.125 (≈ 0.145 µM)	0.125 (≈ 0.145 µM)	0.03 (≈ 0.0349 µM)	> 64	16 (≈ 18.6 µM)	0.5 (≈ 0.581 µM)	0.125 (≈ 0.145 µM)	64 (≈ 74.4 µM)	0.03 (≈ 0.0349 µM)	0.125 (≈ 0.145 µM)
CC[C@H]1OC(=O)[C@H](C)[C@@H](OC(=O)N2CC(C)(C)C[C@@H]2c2ccc3c(c2)OCO3)[C@H](C)[C@@H](O[C@@H]2O[C@H](C)C[C@H](N(C)C)[C@H]2O)[C@](C)(OC)C[C@@H](C)C(=O)[C@H](C)[C@H]2NC(=O)O[C@@]21C	0.25 (≈ 0.291 µM)	0.25 (≈ 0.291 µM)	2 (≈ 2.33 µM)	> 64	> 64	4 (≈ 4.65 µM)	0.25 (≈ 0.291 µM)	> 64	0.5 (≈ 0.581 µM)	0.25 (≈ 0.291 µM)
CC[C@H]1OC(=O)[C@H](C)[C@@H](OC(=O)N2CC(C)(C)C[C@@H]2c2cccnc2)[C@H](C)[C@@H](O[C@@H]2O[C@H](C)C[C@H](N(C)C)[C@H]2O)[C@](C)(OC)C[C@@H](C)C(=O)[C@H](C)[C@H]2NC(=O)O[C@@]21C	–	–	0.03 (≈ 0.0367 µM)	> 64	16 (≈ 19.6 µM)	> 64	–	> 64	0.03 (≈ 0.0367 µM)	4 (≈ 4.9 µM)
CC[C@H]1OC(=O)[C@H](C)[C@@H](OC(=O)N2CCC[C@@H]2c2cccnc2)[C@H](C)[C@@H](O[C@@H]2O[C@H](C)C[C@H](N(C)C)[C@H]2O)[C@](C)(OC)C[C@@H](C)C(=O)[C@H](C)[C@H]2NC(=O)O[C@@]21C	0.25 (≈ 0.317 µM)	16 (≈ 20.3 µM)	0.5 (≈ 0.634 µM)	> 64	> 64	16 (≈ 20.3 µM)	0.125 (≈ 0.158 µM)	> 64	0.5 (≈ 0.634 µM)	0.25 (≈ 0.317 µM)
CC[C@H]1OC(=O)[C@H](C)[C@@H](O[C@H]2C[C@@](C)(OC)[C@@H](O)[C@H](C)O2)[C@H](C)[C@@H](O[C@@H]2O[C@H](C)C[C@H](N(C)C)[C@H]2O)[C@](C)(OC)C[C@@H](C)C(=O)[C@H](C)[C@@H](O)[C@]1(C)O [CLARITHROMYCIN]	0.5 (≈ 0.668 µM)	0.5 (≈ 0.668 µM)	0.25 (≈ 0.334 µM)	16 (≈ 21.4 µM)	8 (≈ 10.7 µM)	1 (≈ 1.34 µM)	0.25 (≈ 0.334 µM)	16 (≈ 21.4 µM)	0.125 (≈ 0.167 µM)	0.5 (≈ 0.668 µM)
CC(=O)NC[C@H]1CN(c2ccc(N3CCOCC3)c(F)c2)C(=O)O1 [LINEZOLID]	0.5 (≈ 1.48 µM)	0.5 (≈ 1.48 µM)	0.125 (≈ 0.371 µM)	8 (≈ 23.7 µM)	8 (≈ 23.7 µM)	1 (≈ 2.96 µM)	0.5 (≈ 1.48 µM)	8 (≈ 23.7 µM)	0.125 (≈ 0.371 µM)	0.5 (≈ 1.48 µM)

Reference: ChEMBL document CHEMBL2331530, “Novel 3-O-carbamoyl erythromycin A derivatives (carbamolides) with activity against resistant staphylococcal and streptococcal isolates” (2013)
